Where a name gives a salt, the structure may show the parent alone.
Tests used:
[1] = Pharmacokinetics in male cynomolgus monkeys (co-crystal capsules, spray-dried dispersion); type: in vivo
Protocol: Two groups of male cynomolgus monkeys (n=3/group) were administered test articles in a 3-way crossover design as indicated in Table 2. The washout period between doses was 3-4 days. Test article capsules were prepared such that each capsule contained an equivalent of 25 mg of free base compound I-1. The organic stock solution of compound I-1 was prepared at a concentration of 5 mg/ml using TPGS/PEG400/PG, and was diluted with apple juice within 1 hour of dosing (PO) at 1 part stock solution to 3 parts apple juice.
FIGS. 11-14 provide graphs of the plasma concentrations obtained from administering the co-crystal formulations of compound I-1 to monkeys. And Table 3 provides pharmacokinetic (PK) data for the co-crystal formulations, including the average area under the curve (AUC) and percent bioavailability.
FIG. 19 provides PK data for one embodiment of the disclosed spray-dried formulation, and the organic/juice formulation.

[2] = DVS isotherm, spray-dried formulation versus crystalline compound I-1; type: physicochemical; conditions: DVS at 25° C.; crystalline compound I-1 compared with the spray-dried dispersion
Protocol: (§1) FIG. 1 is a dynamic vapor sorption (DVS) plot of percent change in mass versus target relative humidity (RH), illustrating the change in mass of one embodiment of the disclosed spray-dried formulation at 25° C. under various relative humidity conditions. The plot provides two isotherms: 1 is the sorption plot, illustrating the change in mass with increasing relative humidity steps; and 2 is the desorption plot, illustrating the change in mass with decreasing relative humidity steps.
as §1, with “FIG. 6” for “FIG. 1”, “a DVS” for “a dynamic vapor sorption (DVS)”, “relative humidity,” for “relative humidity (RH),”, “of a crystalline sample of compound I-1” for “of the disclosed spray-dried formulation”
FIGS. 1-10 provide structural and stability data concerning the spray-dried formulation (FIGS. 1-5) and a crystalline sample of compound I-1 (FIGS. 6-10). FIGS. 1 and 6 provide DVS isotherm plots for the spray-dried formulation and crystalline compound, respectively.

[3] = Modulated DSC glass transition temperature; type: physicochemical; conditions: mDSC, reversing heat flow versus temperature
Protocol: FIG. 5 is a modulated DSC (mDSC) plot of reversing heat flow versus temperature, illustrating the heat flow for one embodiment of the spray-dried formulation and showing that the glass transition temperature (Tg) for that embodiment is 108.3° C.
FIG. 10 is an mDSC plot of reversing heat flow versus temperature, illustrating the heat flow for a […] sample of compound I-1, and showing that the glass transition temperature (Tg) for the […] sample is 106.1° C.

[4] = Physical and chemical stability of salts of I-18, 1 week (XRPD, HPLC purity); type: physicochemical; conditions: for Area (%) of HPLC peak RRT 1.00: main peak; for Area (%) of HPLC peak RRT 1.17: peak = parent compound formed by hydrolysis; for Form change: XRPD; for Initial purity (area %): HPLC, before storage
Protocol: The physical and chemical stability of the K salt, Arginine salt, Choline salt and Tris salt were evaluated under conditions of 25° C./60% RH and 40° C./75% RH for 1 week. Each sample was added into 3 mL glass vials, sealed by parafilm with several holes, and kept under tested condition. After one week, samples was taken for XRPD and HPLC purity test.

[5] = Hygroscopicity evaluation by DVS of salts of I-18; type: physicochemical; conditions: 25° C., judged from uptake at 80% RH
Protocol: To investigate the solid form stability as a function of humidity, DVS isotherm plot of the K salt, Arginine salt, Choline salt and Tris salt were collected at 25° C. between 0 and 95% RH.

[6] = 25° C./60% RH, 1 week, listed as tris salt
[7] = 40° C./75% RH, 1 week, listed as tris salt
[8] = 25° C./60% RH, 1 week, listed as arginine salt
[9] = 40° C./75% RH, 1 week, listed as arginine salt
[10] = Initial, listed as arginine salt

Structure (SMILES): CCO[C@H]1CC[C@H](n2cc(NC(=O)c3csc(-c4cn[nH]c4)n3)c(-c3nc(F)ccc3F)n2)CC1 [I-106, N-(3-(3,6-difluoropyridin-2-yl)-1-((1r,4r)-4-ethoxycyclohexyl)-1H-pyrazol-4-yl)-2-(1H-pyrazol-4-yl)thiazole-4-carboxamide succinate]
- % F (percent bioavailability) ([1]; n=3, capsule with equivalent of 25 mg free base compound I-1, listed as Succinate co-crystal): 12.7%

Structure (SMILES): CCO[C@H]1CC[C@H](n2cc(NC(=O)c3csc(-c4cn[nH]c4)n3)c(-c3nc(F)ccc3F)n2)CC1 [I-1, N-(3-(3,6-difluoropyridin-2-yl)-1-((1r,4r)-4-ethoxycyclohexyl)-1H-pyrazol-4-yl)-2-(1H-pyrazol-4-yl)thiazole-4-carboxamide]
- change in mass when exposed to higher relative humidity [2]: substantially smaller change in mass
- glass transition temperature (Tg) [3]: 106.1 °C

Structure (SMILES): CCO[C@H]1CC[C@H](n2cc(NC(=O)c3csc(-c4cn[nH]c4)n3)c(-c3nc(F)ccc3F)n2)CC1 [I-105, N-(3-(3,6-difluoropyridin-2-yl)-1-((1r,4r)-4-ethoxycyclohexyl)-1H-pyrazol-4-yl)-2-(1H-pyrazol-4-yl)thiazole-4-carboxamide gentisate]
- % F (percent bioavailability) ([1]; n=3, capsule with equivalent of 25 mg free base compound I-1, listed as Gentisate cocystal): 9.8%

Structure (SMILES): CCO[C@H]1CC[C@H](n2cc(NC(=O)c3csc(-c4cn[nH]c4)n3)c(-c3nc(F)ccc3F)n2)CC1 [I-104, N-(3-(3,6-difluoropyridin-2-yl)-1-((1r,4r)-4-ethoxycyclohexyl)-1H-pyrazol-4-yl)-2-(1H-pyrazol-4-yl)thiazole-4-carboxamide phosphate]
- bioavailability ([1]; cynomolgus monkey, plasma, po, n=3, capsule with equivalent of 25 mg free base compound I-1, read-out: % F (percent bioavailability)): 7.9%
- AUC(0-t) ([1]; cynomolgus monkey, po, n=3, capsule with equivalent of 25 mg free base compound I-1, plasma, normalized to 5 mg/kg of compound I-1, read-out: Average AUC0-24 h ± SD (5 mg/kg basis)): 921 ± 446 ng·h/mL

Structure (SMILES): CCO[C@H]1CC[C@H](n2cc(NC(=O)c3csc(-c4cn[nH]c4)n3)c(-c3nc(F)ccc3F)n2)CC1.O=C(O)C(O)C(O)C(=O)O [I-11, N-(3-(3,6-difluoropyridin-2-yl)-1-((1r,4r)-4-ethoxycyclohexyl)-1H-pyrazol-4-yl)-2-(1H-pyrazol-4-yl)thiazole-4-carboxamide hemi-tartrate salt]
- % F (percent bioavailability) ([1]; n=3, capsule with equivalent of 25 mg free base compound I-1): 24.7%

Structure (SMILES): CCO[C@H]1CC[C@H](n2cc(NC(=O)c3csc(-c4cnn(C(C)OP(=O)(O)O)c4)n3)c(-c3nc(F)ccc3F)n2)CC1 (some centres unmarked) [I-49, 1-(4-(4-((3-(3,6-difluoropyridin-2-yl)-1-((1r,4r)-4-ethoxycyclohexyl)-1H-pyrazol-4-yl)carbamoyl)thiazol-2-yl)-1H-pyrazol-1-yl)ethyl dihydrogen phosphate tris salt]
- Area (%) of HPLC peak RRT 1.13 ([4]; 25° C./60% RH, 1 week): 0.06%
- Area (%) of HPLC peak RRT 0.77 [4, 6]: <0.03%
- Area (%) of HPLC peak RRT 1.45 [4, 6]: 0.35%
- Area (%) of HPLC peak RRT 1.71 [4, 6]: 0.80%
- Area (%) of HPLC peak RRT 1.73 [4, 6]: 0.55%
- HPLC purity change [4, 6]: no HPLC purity decrease
- Area (%) of HPLC peak RRT 1.00 [4, 6]: 96.61%
- Area (%) of HPLC peak RRT 1.17 [4, 6]: 1.63%
- Form change ([4]; 25° C./60% RH/1 week, listed as Tris salt): no form change and No
- Area (%) of HPLC peak RRT 0.77 [4, 7]: 0.03%
- Area (%) of HPLC peak RRT 1.45 [4, 7]: 0.47%
- Area (%) of HPLC peak RRT 1.71 [4, 7]: 0.88%
- Area (%) of HPLC peak RRT 1.73 [4, 7]: 0.84%
- HPLC purity change [4, 7]: a purity decrease was observed
- Area (%) of HPLC peak RRT 1.00 [4, 7]: 95.03%
- Area (%) of HPLC peak RRT 1.17 [4, 7]: 2.69%
- Form change ([4]; 40° C./75% RH/1 week, listed as Tris salt): no form change and No
- Initial purity (area %) ([4]; listed as Tris salt): 96.06 area %
- Area (%) of HPLC peak RRT 0.77 ([4]; Initial, listed as tris salt): <0.03%
- Area (%) of HPLC peak RRT 1.13 ([4]; Initial, listed as tris salt): 0.07%
- Area (%) of HPLC peak RRT 1.45 ([4]; Initial, listed as tris salt): 0.37%
- Area (%) of HPLC peak RRT 1.71 ([4]; Initial, listed as tris salt): 0.86%
- Area (%) of HPLC peak RRT 1.73 ([4]; Initial, listed as tris salt): 0.76%
- Area (%) of HPLC peak RRT 1.00 ([4]; Initial, listed as tris salt): 96.06%
- Area (%) of HPLC peak RRT 1.17 ([4]; Initial, listed as tris salt): 1.87%

Structure (SMILES): CCO[C@H]1CC[C@H](n2cc(NC(=O)c3csc(-c4cnn(C(C)OP(=O)(O)O)c4)n3)c(-c3nc(F)ccc3F)n2)CC1 (some centres unmarked) [I-110, 1-(4-(4-((3-(3,6-difluoropyridin-2-yl)-1-((1r,4r)-4-ethoxycyclohexyl)-1H-pyrazol-4-yl)carbamoyl)thiazol-2-yl)-1H-pyrazol-1-yl)ethyl dihydrogen phosphate arginine salt]
- Area (%) of HPLC peak RRT 1.13 ([4]; 25° C./60% RH, 1 week): 0.06%
- Area (%) of HPLC peak RRT 0.77 [4, 8]: 0.03%
- Area (%) of HPLC peak RRT 1.35 [4, 8]: 0.06%
- Area (%) of HPLC peak RRT 1.45 [4, 8]: 0.50%
- Area (%) of HPLC peak RRT 1.71 [4, 8]: 0.74%
- Area (%) of HPLC peak RRT 1.73 [4, 8]: 0.61%
- HPLC purity change [4, 8]: slight purity decrease
- Area (%) of HPLC peak RRT 1.00 [4, 8]: 95.31%
- Area (%) of HPLC peak RRT 1.17 [4, 8]: 2.68%
- Form change ([4]; 25° C./60% RH/1 week, listed as Arginine salt): no form change and No
- Area (%) of HPLC peak RRT 1.13 ([4]; 40° C./75% RH, 1 week): 0.06%
- Area (%) of HPLC peak RRT 0.77 [4, 9]: 0.04%
- Area (%) of HPLC peak RRT 1.35 [4, 9]: 0.11%
- Area (%) of HPLC peak RRT 1.45 [4, 9]: 0.47%
- Area (%) of HPLC peak RRT 1.71 [4, 9]: 0.73%
- Area (%) of HPLC peak RRT 1.73 [4, 9]: 0.60%
- HPLC purity change [4, 9]: slight purity decrease
- Area (%) of HPLC peak RRT 1.00 [4, 9]: 95.50%
- Area (%) of HPLC peak RRT 1.17 [4, 9]: 2.48%
- Form change ([4]; 40° C./75% RH/1 week, listed as Arginine salt): no form change and No
- Initial purity (area %) ([4]; listed as Arginine salt): 95.91 area %
- Area (%) of HPLC peak RRT 1.35 ([4]; Initial): <0.03%
- Area (%) of HPLC peak RRT 0.77 [4, 10]: <0.03%
- Area (%) of HPLC peak RRT 1.13 [4, 10]: <0.03%
- Area (%) of HPLC peak RRT 1.45 [4, 10]: 0.44%
- Area (%) of HPLC peak RRT 1.71 [4, 10]: 0.73%
- Area (%) of HPLC peak RRT 1.73 [4, 10]: <0.53%
- Area (%) of HPLC peak RRT 1.00 [4, 10]: 95.91%
- Area (%) of HPLC peak RRT 1.17 [4, 10]: 2.39%
- hygroscopicity [5]: slight hygroscopic
